Where two headings read alike, the source gives them in different places.
Assay: Rat PK study #3 (ABBV-744 IV 1 mg/kg and PO 5 mg/kg)
Format: in vivo, SD rats
Conditions: male, Sprague-Dawley, rat, plasma, SD rats, DMSO/PEG-400/Milli-Q water formulation; for C0: read-out: C0; for MRT inf: read-out: MRTInf_obs; for Tmax: read-out: Tmax
Description: For the third rat pharmacokinetic study, the pharmacokinetics of ABBV-744 were assessed in male SD rats for comparison to Compound A. ABBV-744 was prepared in a formulation of 5% DMSO, 40% PEG-400, and 55% Milli-Q water (see Table 2D for formulation) and delivered to animals orally (PO) at a dose of 5 mg/kg, or intravenously (IV) at a dose of 1 mg/kg. Animals in each group (n=3) were then monitored over a 24-hour period.
Blood samples (~0.2 mL) were collected according to a schedule (IV administration: 0.033, 0.083, 0.25, 0.5, 1, 2, 4, and 8 h following the initial dosing; PO administration: 0.083, 0.25, 0.5, 1, 2, 4, 8, and 24 h following the initial dosing) by jugular vein by cannulation except for the dosing vein (for IV group), and EDTA-K2 was used as anticoagulant. Within 30 minutes of collection, the samples were centrifuged at approximately 4000 times g-force for 5 minutes at 4° C. to obtain blood plasma. The plasma samples were immediately divided into two aliquots (~75 µL each), transferred to a cryogenic vial, and stored in a freezer at −75±15° C. prior to analysis.
The concentration of ABBV-744 in plasma samples was determined by liquid chromatography-mass spectrometry (LC-MS/MS) using a Shimadzu HPLC(DGU-405; LC-40D XS CN; SIL-40C XSCN; Plate Changer CN; CTO-40C CN; and CBM-40 CN) and an AB API 5500+LC/MS/MS instrument. Samples were analyzed on an Agilent Poroshell Bonus RP 2.7 μm (50×2.1 mm) column. Solution A in the mobile phase was 95% water (0.1% formic acid) and solution B was 95% acetonitrile in water (0.1% formic acid), injection volume was 6 μL, and flow rate was 0.6 mL/min.
To prepare samples for analysis, serial concentrations were prepared by diluting the stock solution of analyte with a 50% acetonitrile in water solution. 5 μL working solutions (5, 10, 20, 50, 100, 500, 1000, 5000, and 10000 ng/mL) were added to 50 μL of the blank SD rat plasma to achieve calibration standards of ~0.5 to 1000 ng/ml (0.5, 1, 2, 5, 10, 50, 100, 500, and 1000 ng/ml) in a total volume of 55 μL. Five quality control samples at 1 ng/ml, 2 ng/ml, 5 ng/ml, 50 ng/mL, and 800 ng/ml for plasma were prepared independently of those used for the calibration curves. These QC samples were prepared on the day of analysis in the same way as calibration standards.
55 μL of standards, 55 μL of QC samples and 55 μL of unknown samples (50 μL of unknown rat plasma with 5 µL of blank solution) were added to 200 µL of acetonitrile containing IS mixture (verapamil) for precipitating protein respectively. The samples were then vortexed for 30 s. After centrifugation at 4° C., 3900 rpm for 15 min, the supernatant was diluted 3 times with water. 6 μL of diluted supernatant was injected into the LC/MS/MS system for quantitative analysis.

[1] = iv, 1 mg/kg, IV 1 mg/kg, individual animals
[2] = iv, 1 mg/kg, IV 1 mg/kg, mean of 3 animals
[3] = po, 5 mg/kg, PO 5 mg/kg, mean of 3 animals

Question: Which concentration at 0.083 h [1] does the source give for `CCNC(=O)c1cc2c(-c3cc(C(C)(C)O)ccc3Oc3c(C)cc(F)cc3C)cn(C)c(=O)c2[nH]1` [ABBV-744] here?
Answer: 351 ng/mL

Question: What about the concentration at 0.083 h [2] of the same molecule?
Answer: 337 ng/mL

Question: What about the concentration at 0.25 h [1] of the same molecule?
Answer: 248 ng/mL

Question: What about the concentration at 0.25 h [2] of the same molecule?
Answer: 268 ng/mL

Question: And the concentration at 0.5 h [1]?
Answer: 191 ng/mL

Question: And the concentration at 0.5 h [2]?
Answer: 203 ng/mL

Question: And the concentration at 1 h [1]?
Answer: 158 ng/mL

Question: What about the concentration at 1 h [2] of the same molecule?
Answer: 154 ng/mL

Question: And the concentration at 2 h [1]?
Answer: 103 ng/mL

Question: And the concentration at 2 h [2]?
Answer: 110 ng/mL

Question: What about the concentration at 4 h [1] of the same molecule?
Answer: 48 ng/mL

Question: And the concentration at 4 h [2]?
Answer: 52.9 ng/mL

Question: What about the concentration at 8 h [1] of the same molecule?
Answer: 12.6 ng/mL

Question: What about the concentration at 8 h [2] of the same molecule?
Answer: 15.3 ng/mL

Question: What about the AUC(0-inf) [1] of the same molecule?
Answer: 669 ng·h/mL

Question: And the AUC(0-t) [1]?
Answer: 633 ng·h/mL

Question: And the half-life [1]?
Answer: 1.99 h

Question: What about the C0 [1] of the same molecule?
Answer: 580 ng/mL

Question: What about the MRT inf [1] of the same molecule?
Answer: 2.47 h

Question: What about the AUC(0-inf) [2] of the same molecule?
Answer: 716 ng·h/mL

Question: And the AUC(0-t) [2]?
Answer: 668 ng·h/mL

Question: What about the half-life [2] of the same molecule?
Answer: 2.12 h

Question: What about the C0 [2] of the same molecule?
Answer: 613 ng/mL

Question: What about the MRT inf [2] of the same molecule?
Answer: 2.65 h

Question: And the concentration at 0.083 h [3]?
Answer: 1.61 ng/mL

Question: And the concentration at 0.25 h [3]?
Answer: 19.3 ng/mL

Question: What about the concentration at 0.5 h [3] of the same molecule?
Answer: 43 ng/mL

Question: And the concentration at 1 h [3]?
Answer: 59 ng/mL

Question: And the concentration at 2 h [3]?
Answer: 89 ng/mL

Question: And the concentration at 4 h [3]?
Answer: 127 ng/mL

Question: What about the concentration at 8 h [3] of the same molecule?
Answer: 113 ng/mL

Question: And the concentration at 24 h (po, 5 mg/kg, PO 5 mg/kg, 24 h, mean of 3 animals)?
Answer: 2.17 ng/mL

Question: And the Tmax (po, 5 mg/kg, PO 5 mg/kg, individual animals)?
Answer: 8 h

Question: What about the AUC(0-t) [3] of the same molecule?
Answer: 1730 ng·h/mL

Question: And the Cmax (po, 5 mg/kg, PO 5 mg/kg, mean of 3 animals, read-out: Cmax)?
Answer: 132 ng/mL

Question: What about the Tmax [3] of the same molecule?
Answer: 5.33 h
